PubChem BioAssay (NCI)
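Results reflect a 48-hour exposure of cells in 96-well plates to compound at five concentrations. TGI marks complete inhibition of growth.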

How the values were obtained:
Test in all cases: NCI tumour cell line growth inhibition, 48 h
[1] = tested on: SF-539 CNS
[2] = tested on: MDA-N
[3] = tested on: SW-620 colon
[4] = tested on: UACC-257 melanoma
[5] = tested on: MCF7 breast
[6] = tested on: RPMI-8226 leukemia
[7] = tested on: M14 melanoma
[8] = tested on: NCI-H522 lung
[9] = tested on: SR leukemia
[10] = tested on: RXF 393 renal
[11] = tested on: OVCAR-5 ovarian
[12] = tested on: LOX IMVI melanoma
[13] = tested on: NCI-H226 lung
[14] = tested on: MDA-MB-435
[15] = tested on: TK-10 renal
[16] = tested on: PC-3 prostate
[17] = tested on: UACC-62 melanoma

SMILES: C=CCC1(OCc2ccccc2)C(=O)C(=O)OC1C1COC(C)(C)O1 (stereo unspecified)
- TGI [1]: > 100 µM
- TGI [2]: > 100 µM
- TGI [3]: > 100 µM
- TGI [4]: > 100 µM
- TGI [5]: > 100 µM
- TGI [6]: > 100 µM
- TGI [7]: > 100 µM
- TGI [8]: > 100 µM
- TGI [9]: > 100 µM
- TGI [10]: > 100 µM
- TGI [11]: > 100 µM
- TGI [12]: > 100 µM
- TGI [13]: > 100 µM
- TGI [14]: > 100 µM
- TGI [15]: > 100 µM
- TGI [16]: > 100 µM
- TGI [17]: > 100 µM

SMILES: O=C(CCCN1CCC2(CC1)CC(c1ccccc1)OC2=O)c1ccc(F)cc1 (stereo unspecified)
- TGI [1]: 53.1 µM
- TGI [2]: > 100 µM
- TGI [3]: > 100 µM
- TGI [4]: 52.1 µM
- TGI [5]: > 100 µM
- TGI [6]: 51.3 µM
- TGI [7]: 30.9 µM
- TGI [8]: > 100 µM
- TGI [9]: 40.1 µM
- TGI [10]: > 100 µM
- TGI [11]: > 100 µM
- TGI [12]: 45.1 µM
- TGI [13]: > 100 µM
- TGI [14]: > 100 µM
- TGI [15]: > 100 µM
- TGI [16]: > 100 µM
- TGI [17]: 61.9 µM

SMILES: CCOC(=O)c1c(C)nc2c1c(CN(C)C)c(O)c1[nH]c(C)c(C)nc12
- TGI [1]: 49.5 µM
- TGI [2]: 54.7 µM
- TGI [3]: 95.2 µM
- TGI [4]: 61.3 µM
- TGI [5]: 52.1 µM
- TGI [6]: 43.8 µM
- TGI [7]: > 100 µM
- TGI [8]: 42.7 µM
- TGI [9]: 51.5 µM
- TGI [10]: 65.7 µM
- TGI [11]: 94 µM
- TGI [12]: 37.8 µM
- TGI [13]: 62.1 µM
- TGI [14]: 99.7 µM
- TGI [15]: 72.8 µM
- TGI [16]: 54.5 µM
- TGI [17]: 30.3 µM

SMILES: CCC1(c2ccccc2)C(=O)N=C(c2ccccc2)N1CCc1ccccc1 (stereo unspecified)
- TGI [1]: > 100 µM
- TGI [2]: > 100 µM
- TGI [3]: > 100 µM
- TGI [4]: > 100 µM
- TGI [5]: > 100 µM
- TGI [6]: > 100 µM
- TGI [7]: > 100 µM
- TGI [8]: > 100 µM
- TGI [9]: > 100 µM
- TGI [10]: > 100 µM
- TGI [11]: > 100 µM
- TGI [12]: > 100 µM
- TGI [13]: > 100 µM
- TGI [14]: > 100 µM
- TGI [15]: > 100 µM
- TGI [16]: > 100 µM
- TGI [17]: > 100 µM

SMILES: O=[N+]([O-])c1nccn1CCCNc1ccnc2cc(Cl)ccc12
- TGI [1]: > 88.7 µM
- TGI [2]: > 100 µM
- TGI [3]: > 100 µM
- TGI [4]: > 9.02 µM
- TGI [5]: > 100 µM
- TGI [6]: > 100 µM
- TGI [7]: > 100 µM
- TGI [8]: 6.71 µM
- TGI [9]: > 75.3 µM
- TGI [10]: > 23 µM
- TGI [11]: > 100 µM
- TGI [12]: > 100 µM
- TGI [13]: 10.8 µM
- TGI [14]: > 100 µM
- TGI [15]: > 11.7 µM
- TGI [16]: > 100 µM
- TGI [17]: > 8.46 µM

SMILES: O=C(c1ccccc1)c1ccc2nc(-c3c(Cl)c(Cl)c(Cl)c(Cl)c3C(=O)N/N=C/c3ccc(Cl)cc3)[nH]c2c1
- TGI [1]: > 100 µM
- TGI [2]: > 100 µM
- TGI [3]: > 100 µM
- TGI [4]: > 100 µM
- TGI [5]: 71.8 µM
- TGI [6]: 51.3 µM
- TGI [7]: > 100 µM
- TGI [8]: > 100 µM
- TGI [9]: > 100 µM
- TGI [10]: 85.9 µM
- TGI [11]: > 100 µM
- TGI [12]: > 100 µM
- TGI [13]: > 100 µM
- TGI [14]: > 100 µM
- TGI [15]: > 100 µM
- TGI [16]: > 100 µM

SMILES: CCOC(=O)/C(C=Nc1c(C)n(C)n(-c2ccccc2)c1=O)=C(/C)O
- TGI [1]: > 100 µM
- TGI [2]: > 100 µM
- TGI [3]: > 100 µM
- TGI [4]: > 100 µM
- TGI [5]: > 100 µM
- TGI [6]: > 100 µM
- TGI [7]: > 100 µM
- TGI [8]: > 100 µM
- TGI [9]: > 100 µM
- TGI [10]: > 100 µM
- TGI [11]: > 100 µM
- TGI [12]: > 100 µM
- TGI [13]: > 100 µM
- TGI [14]: > 100 µM
- TGI [15]: > 100 µM
- TGI [16]: > 100 µM
- TGI [17]: > 100 µM

SMILES: C=CCN1C(=O)/C(=C/c2cccs2)N=C1SC/C=C/C
- TGI [1]: > 100 µM
- TGI [2]: > 100 µM
- TGI [3]: > 100 µM
- TGI [4]: > 100 µM
- TGI [5]: > 100 µM
- TGI [6]: 40.6 µM
- TGI [7]: > 100 µM
- TGI [8]: 97.5 µM
- TGI [9]: 45.8 µM
- TGI [10]: 85.2 µM
- TGI [11]: > 100 µM
- TGI [12]: > 100 µM
- TGI [13]: > 100 µM
- TGI [14]: > 100 µM
- TGI [15]: > 100 µM
- TGI [16]: > 100 µM
- TGI [17]: > 100 µM

SMILES: Oc1ccc(-c2cc(-c3cc(-c4ccc(O)cc4)no3)on2)cc1
- TGI [1]: > 49.7 µM
- TGI [2]: > 100 µM
- TGI [3]: > 100 µM
- TGI [4]: > 31.1 µM
- TGI [5]: > 100 µM
- TGI [6]: > 100 µM
- TGI [7]: > 100 µM
- TGI [8]: > 100 µM
- TGI [9]: > 31.6 µM
- TGI [10]: > 100 µM
- TGI [11]: > 100 µM
- TGI [12]: > 100 µM
- TGI [13]: > 100 µM
- TGI [14]: > 100 µM
- TGI [15]: > 100 µM
- TGI [16]: > 100 µM
- TGI [17]: > 100 µM

SMILES: COc1c(Br)cc2c(c1OC)C(Br)CCC(Br)(Br)C2=O (stereo unspecified)
- TGI [1]: 5.25 µM
- TGI [2]: 0.684 µM
- TGI [3]: 1.58 µM
- TGI [4]: 14.7 µM
- TGI [5]: 6.13 µM
- TGI [6]: 6.06 µM
- TGI [7]: 0.539 µM
- TGI [8]: 2 µM
- TGI [9]: 1.29 µM
- TGI [10]: 1.82 µM
- TGI [11]: 13.6 µM
- TGI [12]: 1.58 µM
- TGI [13]: 5.84 µM
- TGI [14]: 3.62 µM
- TGI [15]: 8.39 µM
- TGI [16]: 4.03 µM
- TGI [17]: 13.1 µM

SMILES: COc1ccc(C(=O)/C=C/c2ccc(O)c(O)c2)c(OC)c1
- TGI [1]: 7.55 µM
- TGI [2]: > 46.2 µM
- TGI [3]: > 63.8 µM
- TGI [4]: 15.3 µM
- TGI [5]: 14.1 µM
- TGI [6]: 15.8 µM
- TGI [7]: 19 µM
- TGI [8]: 0.74 µM
- TGI [9]: 6.54 µM
- TGI [10]: 39.2 µM
- TGI [11]: 47.2 µM
- TGI [12]: 26.4 µM
- TGI [13]: 22.3 µM
- TGI [14]: > 48.5 µM
- TGI [15]: 20.2 µM
- TGI [16]: 26.4 µM
- TGI [17]: 14.4 µM
